Literature values as cited in article PMC11345841, “Exploring 2-Sulfonylpyrimidine Warheads as Acrylamide Surrogates for Targeted Covalent Inhibition: A BTK Story” (Journal of Medicinal Chemistry, 2024).
Where two headings read alike, the source gives them in different places.

Test system: 468 human kinases
Details: cited from earlier work; for %Control: @1000nM, ref Buhimschi et al. 2018; for Percent of Control: ref Buhimschi/Crews

SMILES: C=CC(=O)N1CCC[C@@H](n2nc(-c3ccc(Oc4ccccc4)cc3)c3c(N)ncnc32)C1 [Compound 1g, Ibrutinib, reference compound]
- number of kinases with ≥90 inhibition belonging to the TK family (including BTK) (1 μM): 36 kinases
- number of kinases with ≥90 inhibition out of 468 (1 μM): 39 kinases
- %Control (ABL1(E255K)-phosphorylated): 71%
- %Control (ABL1(F317I)-nonphosphorylated): 30%
- %Control (ABL1(F317L)-nonphosphorylated): 25%
- %Control (ABL1(F317L)-phosphorylated): 49%
- %Control (ABL1(H396P)-nonphosphorylated): 18%
- %Control (ABL1(Q252H)-nonphosphorylated): 6.4%
- %Control (ABL1(Q252H)-phosphorylated): 67%
- %Control (ABL1(T315I)-nonphosphorylated): 100%
- %Control (ABL1-nonphosphorylated): 9%
- %Control (ABL1-phosphorylated): 69%
- %Control (ABL2): 43%
- %Control (ALK(C1156Y)): 91%
- %Control (ALK(L1196M)): 96%
- %Control (BMX): 38%
- %Control (BRK): 1.4%
- %Control (BTK): 0%
- %Control (CSK): 2.4%
- %Control (DDR2): 100%
- %Control (EGFR(E746-A750del)): 5.1%
- %Control (EGFR(G719C)): 0.35%
- %Control (EGFR(G719S)): 0.45%
- %Control (EGFR(L747-E749del, A750P)): 0.3%
- %Control (EGFR(L747-S752del, P753S)): 12%
- %Control (EGFR(L747-T751del,Sins)): 1.4%
- %Control (EGFR(L858R)): 1.4%
- %Control (EGFR(L858R,T790M)): 6.9%
- %Control (EGFR(L861Q)): 0.1%
- %Control (EGFR(S752-I759del)): 0%
- %Control (EGFR(T790M)): 0.15%
- %Control (EGFR): 0%
- %Control (EPHA2): 96%
- %Control (EPHA5): 100%
- %Control (EPHA7): 100%
- %Control (EPHA8): 78%
- %Control (EPHB2): 100%
- %Control (EPHB3): 89%
- %Control (EPHB4): 100%
- %Control (EPHB6): 8.6%
- %Control (ERBB2): 0%
- %Control (ERBB3): 0%
- %Control (FAK): 93%
- %Control (FER): 95%
- %Control (FES): 100%
- %Control (FGFR1): 42%
- %Control (FGFR2): 42%
- %Control (FGFR3(G697C)): 35%
- %Control (FGFR3): 45%
- %Control (FGFR4): 100%
- %Control (FGR): 10%
- %Control (FLT3(D835H)): 18%
- %Control (FLT3(D835V)): 1.9%
- %Control (FLT3(D835Y)): 44%
- %Control (FLT3(K663Q)): 38%
- %Control (FLT3(N841I)): 31%
- %Control (FLT3(R834Q)): 54%
- %Control (FLT3-autoinhibited): 94%
- %Control (FLT3): 26%
- %Control (FLT4): 38%
- %Control (FRK): 11%
- %Control (FYN): 5.3%
- %Control (HCK): 0.3%
- %Control (IGF1R): 100%
- %Control (INSR): 87%
- %Control (INSRR): 96%
- %Control (ITK): 6.8%
- %Control (JAK1(JH1domain-catalytic)): 100%
- %Control (JAK1(JH2domain-pseudokinase)): 91%
- %Control (JAK2(JH1domain-catalytic)): 87%
- %Control (JAK3(JH1domain-catalytic)): 0%
- %Control (KIT(A829P)): 21%
- %Control (KIT(D816H)): 78%
- %Control (KIT(L576P)): 42%
- %Control (KIT(V559D)): 31%
- %Control (KIT(V559D,T670I)): 94%
- %Control (KIT(V559D,V654A)): 91%
- %Control (KIT): 57%
- %Control (LCK): 0.2%
- %Control (LYN): 9.5%
- %Control (MERTK): 74%
- %Control (MET(M1250T)): 56%
- %Control (MET(Y1235D)): 87%
- %Control (PDGFRA): 48%
- %Control (PDGFRB): 35%
- %Control (RET(M918T)): 14%
- %Control (RET(V804M)): 72%
- %Control (RET): 9.3%
- %Control (ROS1): 97%
- %Control (SRC): 3.2%
- %Control (SYK): 91%
- %Control (TEC): 1.9%
- %Control (TIE1): 61%
- %Control (TIE2): 58%
- %Control (TNK1): 23%
- %Control (TNK2): 35%
- %Control (TRKB): 82%
- %Control (TXK): 3.8%
- %Control (TYK2(JH1domain-catalytic)): 89%
- %Control (TYRO3): 96%
- %Control (YES): 2.6%
- %Control (ZAP70): 77%
- Percent of Control (ABL1(F317I)-nonphosphorylated): 30%
- Percent of Control (ABL1(F317I)-phosphorylated): 67%
- Percent of Control (ABL1(F317L)-nonphosphorylated): 25%
- Percent of Control (ABL1(F317L)-phosphorylated): 49%
- Percent of Control (ABL1(H396P)-nonphosphorylated): 18%
- Percent of Control (ABL1(Q252H)-nonphosphorylated): 6.4%
- Percent of Control (ABL1(Q252H)-phosphorylated): 67%
- Percent of Control (ABL1(Y253F)-phosphorylated): 49%
- Percent of Control (ABL1-nonphosphorylated): 9%
- Percent of Control (ABL2): 43%
- Percent of Control (ASK2 (MAP3K6)): 54%
- Percent of Control (BLK): 0.1%
- Percent of Control (BMX): 38%
- Percent of Control (BRAF(V600E)): 59%
- Percent of Control (BRK (PTK6)): 1.4%
- Percent of Control (BTK): 0%
- Percent of Control (CDK2): 66%
- Percent of Control (CSK): 2.4%
- Percent of Control (CSNK1E): 44%
- Percent of Control (CTK (MATK)): 66%
- Percent of Control (EGFR(E746-A750del)): 5.1%
- Percent of Control (EGFR(G719C)): 0.35%
- Percent of Control (EGFR(G719S)): 0.45%
- Percent of Control (EGFR(L747-E749del, A750P)): 0.3%
- Percent of Control (EGFR(L747-S752del, P753S)): 12%
- Percent of Control (EGFR(L747-T751del,Sins)): 1.4%
- Percent of Control (EGFR(L858R)): 1.4%
- Percent of Control (EGFR(L858R,T790M)): 6.9%
- Percent of Control (EGFR(L861Q)): 0.1%
- Percent of Control (EGFR(S752-I759del)): 0%
- Percent of Control (EGFR(T790M)): 0.15%
- Percent of Control (EGFR): 0%
- Percent of Control (EPHB6): 8.6%
- Percent of Control (ERBB2): 0%
- Percent of Control (ERBB3): 0%
- Percent of Control (ERBB4): 0%
- Percent of Control (ERN1): 38%
- Percent of Control (FGFR1): 42%
- Percent of Control (FGFR2): 42%
- Percent of Control (FGFR3(G697C)): 35%
- Percent of Control (FGFR3): 45%
- Percent of Control (FGR): 10%
- Percent of Control (FLT3(D835H)): 18%
- Percent of Control (FLT3(D835V)): 1.9%
- Percent of Control (FLT3(D835Y)): 44%
- Percent of Control (FLT3(ITD)): 55%
- Percent of Control (FLT3(ITD,D835V)): 58%
- Percent of Control (FLT3(K663Q)): 38%
- Percent of Control (FLT3(N841I)): 31%
- Percent of Control (FLT3(R834Q)): 54%
- Percent of Control (FLT3): 26%
- Percent of Control (FLT4): 38%
- Percent of Control (FRK): 11%
- Percent of Control (FYN): 5.3%
- Percent of Control (HCK): 0.3%
- Percent of Control (ITK): 6.8%
- Percent of Control (KIT(A829P)): 21%
- Percent of Control (KIT(L576P)): 42%
- Percent of Control (KIT(V559D)): 31%
- Percent of Control (KIT): 57%
- Percent of Control (LATS2): 66%
- Percent of Control (LCK): 0.2%
- Percent of Control (LIMK1): 41%
- Percent of Control (LOK (STK10)): 41%
- Percent of Control (LZK (MAP3K13)): 58%
- Percent of Control (MAP3K2): 54%
- Percent of Control (MAP3K15): 53%
- Percent of Control (MEK1 (MAP2K1)): 14%
- Percent of Control (MEK2 (MAP2K2)): 21%
- Percent of Control (MEK5 (MAP2K5)): 0.8%
- Percent of Control (MET(M1250T)): 56%
- Percent of Control (MKK7 (MAP2K7)): 0.7%
- Percent of Control (MKNK2): 50%
- Percent of Control (NDR2 (STK38L)): 48%
- Percent of Control (PDGFRA): 48%
- Percent of Control (PDGFRB): 35%
- Percent of Control (RET(M918T)): 14%
- Percent of Control (RET): 9.3%
- Percent of Control (RIPK2): 3.7%
- Percent of Control (RIPK5 (DSTYK)): 15%
- Percent of Control (SNARK (NUAK2)): 68%
- Percent of Control (SRC): 3.2%
- Percent of Control (SRMS): 0%
- Percent of Control (SRPK1): 54%
- Percent of Control (STK35): 55%
- Percent of Control (STK36): 60%
- Percent of Control (TEC): 1.9%
- Percent of Control (TIE2 (TEK)): 58%
- Percent of Control (TNK1): 23%
- Percent of Control (TNK2): 35%
- Percent of Control (TNNI3K): 53%
- Percent of Control (TRKA (NTRK1)): 67%
- Percent of Control (TRPM6): 54%
- Percent of Control (TTK): 40%
- Percent of Control (TXK): 3.8%
- Percent of Control (VEGFR2 (KDR)): 59%
- Percent of Control (WNK2): 65%
- Percent of Control (YANK2 (STK32B)): 49%
- Percent of Control (YES (YES1)): 2.6%
- Percent of Control (ZAK): 38%
